Reference: patent US8952024B2, “Herbicidal pyrimidone derivatives” (E I du Pont de Nemours and Company, priority 2009, dated 2015)

Experiments:
Type in all cases: in vivo
[1] = test system: Italian ryegrass (Lolium multiflorum); assay: Test B pre-/postemergence plant response; details: for Ryegrass, Italian plant response rating (0 to 100 scale): 62 g ai/ha, 0 is no effect, 13 to 15 days
Summary of the method: (§1)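 Visual ratings on a 0–100 scale (100 = complete control) were made versus untreated controls 13–15 days after treatment in a greenhouse. Compounds in surfactant-containing non-phytotoxic solvent were applied preemergence to seeds in loam–sand blend or postemergence to 1- to 4-leaf plants (2–18 cm).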

[2] = test system: bermudagrass (Cynodon dactylon); assay: Test B pre-/postemergence plant response; details: for Bermudagrass plant response rating (0 to 100 scale): 62 g ai/ha, 0 is no effect, 13 to 15 days
Summary of the method: as §1

[3] = test system: blackgrass (Alopecurus myosuroides); assay: Test B pre-/postemergence plant response; details: for Blackgrass plant response rating (0 to 100 scale): 62 g ai/ha, 0 is no effect, 13 to 15 days
Summary of the method: as §1

[4] = test system: corn (Zea mays); assay: Test B pre-/postemergence plant response; details: for Corn plant response rating (0 to 100 scale): 62 g ai/ha, 0 is no effect, 13 to 15 days
Summary of the method: as §1

[5] = test system: downy bromegrass (Bromus tectorum); assay: Test B pre-/postemergence plant response; details: for Bromegrass, Downy plant response rating (0 to 100 scale): 62 g ai/ha, 0 is no effect, 13 to 15 days
Summary of the method: as §1

[6] = test system: giant foxtail (Setaria faberii); assay: Test B pre-/postemergence plant response; details: for Foxtail, Giant plant response rating (0 to 100 scale): 62 g ai/ha, 0 is no effect, 13 to 15 days
Summary of the method: as §1

[7] = test system: goosegrass (Eleusine indica); assay: Test B pre-/postemergence plant response; details: for Goosegrass plant response rating (0 to 100 scale): 62 g ai/ha, 0 is no effect, 13 to 15 days
Summary of the method: as §1

[8] = test system: green foxtail (Setaria viridis); assay: Test B pre-/postemergence plant response; details: for Foxtail, Green plant response rating (0 to 100 scale): 62 g ai/ha, 0 is no effect, 13 to 15 days
Summary of the method: as §1

[9] = test system: johnsongrass (Sorghum halepense); assay: Test B pre-/postemergence plant response; details: for Johnsongrass plant response rating (0 to 100 scale): 62 g ai/ha, 0 is no effect, 13 to 15 days
Summary of the method: as §1

[10] = test system: morningglory (Ipomoea coccinea); assay: Test B pre-/postemergence plant response; details: for Morningglory plant response rating (0 to 100 scale): 62 g ai/ha, 0 is no effect, 13 to 15 days
Summary of the method: as §1

[11] = test system: pigweed (Amaranthus retroflexus); assay: Test B pre-/postemergence plant response; details: for Pigweed plant response rating (0 to 100 scale): 62 g ai/ha, 0 is no effect, 13 to 15 days
Summary of the method: as §1

[12] = test system: ragweed (common ragweed, Ambrosia elatior); assay: Test B pre-/postemergence plant response; details: for Ragweed plant response rating (0 to 100 scale): 62 g ai/ha, 0 is no effect, 13 to 15 days
Summary of the method: as §1

[13] = test system: soybean (Glycine max); assay: Test B pre-/postemergence plant response; details: for Soybean plant response rating (0 to 100 scale): 62 g ai/ha, 0 is no effect, 13 to 15 days
Summary of the method: as §1

[14] = test system: velvetleaf (Abutilon theophrasti); assay: Test B pre-/postemergence plant response; details: for Velvetleaf plant response rating (0 to 100 scale): 62 g ai/ha, 0 is no effect, 13 to 15 days
Summary of the method: as §1

[15] = test system: wheat (Triticum aestivum); assay: Test B pre-/postemergence plant response; details: for Wheat plant response rating (0 to 100 scale): 62 g ai/ha, 0 is no effect, 13 to 15 days
Summary of the method: as §1

[16] = test system: canarygrass (Phalaris minor); assay: Test B postemergence plant response; details: for Canarygrass plant response rating (0 to 100 scale): 62 g ai/ha, 0 is no effect, 13 to 15 days
Summary of the method: (§2)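 Plants at the 1- to 4-leaf stage (2 to 18 cm tall), grown in pots of peat moss/vermiculite medium with wetting agent and starter nutrients, received postemergence applications of test chemicals. After 13 to 15 days in a greenhouse, injury was rated visually against untreated controls on a 0 (no effect) to 100 (complete control) scale.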

[17] = test system: chickweed (Stellaria media); assay: Test B postemergence plant response; details: for Chickweed plant response rating (0 to 100 scale): 62 g ai/ha, 0 is no effect, 13 to 15 days
Summary of the method: as §2

[18] = test system: winter barley (Hordeum vulgare); assay: Test B postemergence plant response; details: for Barley plant response rating (0 to 100 scale): 62 g ai/ha, 0 is no effect, 13 to 15 days
Summary of the method: as §2

[19] = 31 g ai/ha, postemergence, scale 0 to 100, 0 is no effect, 100 is complete control
[20] = postemergence, 100 is complete control
[21] = Postemergence, 250 g ai/ha, scale 0 to 100 (0 no effect, 100 complete control)
[22] = Postemergence, 125 g ai/ha, visual rating after 13 to 15 days, scale 0 (no effect) to 100 (complete control)

In the case of `CCCn1c(-c2ccsc2)ncc(C(=O)C2=C(O)CCCC2=O)c1=O` [Compound 93], the “Plant response rating, Ryegrass, Italian” value [1, 19] is reported as 0, the “Ryegrass, Italian plant response rating (0 to 100 scale)” value [1, 20] is reported as 0 and the “Plant response rating, Ryegrass, Italian” value [1, 21] is reported as 0. The “Plant response rating, Bermudagrass” value [2, 19] was 60, the “Bermudagrass plant response rating (0 to 100 scale)” value [2, 20] was 75 and the “Plant response rating, Bermudagrass” value [2, 22] was 85. For the same compound, the “Plant response rating, Bermudagrass” value [2, 21] was 85, the “Plant response rating, Blackgrass” value [3, 19] was 0 and the “Blackgrass plant response rating (0 to 100 scale)” value [3, 20] was 5. The “Plant response rating, Blackgrass” value [3, 22] was 30, the “Plant response rating, Blackgrass” value [3, 21] was 30 and the “Plant response rating, Corn” value [4, 19] was 0. The “Corn plant response rating (0 to 100 scale)” value [4, 20] was 45, the “Plant response rating, Corn” value [4, 22] was 50 and the “Plant response rating, Corn” value [4, 21] was 60. The “Plant response rating, Bromegrass, Downy” value [5, 19] was 0, the “Bromegrass, Downy plant response rating (0 to 100 scale)” value [5, 20] was 0 and the “Plant response rating, Bromegrass, Downy” value [5, 22] was 0. The “Plant response rating, Bromegrass, Downy” value [5, 21] was 0, the “Plant response rating, Foxtail, Giant” value [6, 19] was 70 and the “Foxtail, Giant plant response rating (0 to 100 scale)” value [6, 20] was 80. The “Plant response rating, Foxtail, Giant” value [6, 21] was 85, the “Plant response rating, Goosegrass” value [7, 19] was 60 and the “Goosegrass plant response rating (0 to 100 scale)” value [7, 20] was 65. For the same compound, the “Plant response rating, Goosegrass” value [7, 21] was 75, the “Plant response rating, Foxtail, Green” value [8, 19] was 50 and the “Foxtail, Green plant response rating (0 to 100 scale)” value [8, 20] was 60. The “Plant response rating, Foxtail, Green” value [8, 21] was 90, the “Plant response rating, Johnsongrass” value [9, 19] was 10 and the “Johnsongrass plant response rating (0 to 100 scale)” value [9, 20] was 10. For the same compound, the “Plant response rating, Johnsongrass” value [9, 21] was 70, the “Plant response rating, Morningglory” value [10, 19] was 70 and the “Morningglory plant response rating (0 to 100 scale)” value [10, 20] was 80. The “Plant response rating, Morningglory” value [10, 21] was 100, the “Plant response rating, Pigweed” value [11, 19] was 90 and the “Pigweed plant response rating (0 to 100 scale)” value [11, 20] was 95. For the same compound, the “Plant response rating, Pigweed” value [11, 21] was 100, the “Plant response rating, Ragweed” value [12, 19] was 65 and the “Ragweed plant response rating (0 to 100 scale)” value [12, 20] was 75. For the same compound, the “Plant response rating, Ragweed” value [12, 21] was 98, the “Plant response rating, Soybean” value [13, 19] was 55 and the “Soybean plant response rating (0 to 100 scale)” value [13, 20] was 80. The “Plant response rating, Soybean” value [13, 21] was 98, the “Plant response rating, Velvetleaf” value [14, 19] was 85 and the “Velvetleaf plant response rating (0 to 100 scale)” value [14, 20] was 90. For the same compound, the “Plant response rating, Velvetleaf” value [14, 21] was 98, the “Plant response rating, Wheat” value [15, 19] was 0 and the “Wheat plant response rating (0 to 100 scale)” value [15, 20] was 0. The “Plant response rating, Wheat” value [15, 21] was 5, the “Plant response rating, Canarygrass” value [16, 19] was 0 and the “Canarygrass plant response rating (0 to 100 scale)” value [16, 20] was 0. The “Plant response rating, Canarygrass” value [16, 22] was 5, the “Plant response rating, Canarygrass” value [16, 21] was 10 and the “Plant response rating, Chickweed” value [17, 19] was 80. For the same compound, the “Chickweed plant response rating (0 to 100 scale)” value [17, 20] was 80, the “Plant response rating, Chickweed” value [17, 22] was 95 and the “Plant response rating, Chickweed” value [17, 21] was 98. The “Plant response rating, Barley” value [18, 19] was 0, the “Barley plant response rating (0 to 100 scale)” value [18, 20] was 0 and the “Plant response rating, Barley” value [18, 22] was 5. The “Plant response rating, Barley” value [18, 21] was 5.

For `CCCCCCn1c(-c2ccccc2)ncc(C(=O)C2=C(O)CCCC2=O)c1=O` [Compound 94], the “Plant response rating, Ryegrass, Italian” value [1, 19] was 0, the “Ryegrass, Italian plant response rating (0 to 100 scale)” value [1, 20] was 0 and the “Plant response rating, Ryegrass, Italian” value [1, 21] was 10. The “Plant response rating, Bermudagrass” value [2, 19] was 80, the “Bermudagrass plant response rating (0 to 100 scale)” value [2, 20] was 80 and the “Plant response rating, Bermudagrass” value [2, 22] was 98. For the same compound, the “Plant response rating, Bermudagrass” value [2, 21] was 98, the “Plant response rating, Blackgrass” value [3, 19] was 5 and the “Blackgrass plant response rating (0 to 100 scale)” value [3, 20] was 10. The “Plant response rating, Blackgrass” value [3, 22] was 10, the “Plant response rating, Blackgrass” value [3, 21] was 20 and the “Plant response rating, Corn” value [4, 19] was 0. For the same compound, the “Corn plant response rating (0 to 100 scale)” value [4, 20] was 55, the “Plant response rating, Corn” value [4, 22] was 70 and the “Plant response rating, Corn” value [4, 21] was 80. For the same compound, the “Plant response rating, Bromegrass, Downy” value [5, 19] was 0, the “Bromegrass, Downy plant response rating (0 to 100 scale)” value [5, 20] was 0 and the “Plant response rating, Bromegrass, Downy” value [5, 22] was 0. The “Plant response rating, Bromegrass, Downy” value [5, 21] was 0, the “Plant response rating, Foxtail, Giant” value [6, 19] was 65 and the “Foxtail, Giant plant response rating (0 to 100 scale)” value [6, 20] was 75. For the same compound, the “Plant response rating, Foxtail, Giant” value [6, 21] was 98, the “Plant response rating, Goosegrass” value [7, 19] was 45 and the “Goosegrass plant response rating (0 to 100 scale)” value [7, 20] was 70. The “Plant response rating, Goosegrass” value [7, 21] was 85, the “Plant response rating, Foxtail, Green” value [8, 19] was 10 and the “Foxtail, Green plant response rating (0 to 100 scale)” value [8, 20] was 60. For the same compound, the “Plant response rating, Foxtail, Green” value [8, 21] was 80, the “Johnsongrass plant response rating (0 to 100 scale)” value [9, 20] was 15 and the “Plant response rating, Johnsongrass” value [9, 21] was 45. The “Plant response rating, Morningglory” value [10, 19] was 55, the “Morningglory plant response rating (0 to 100 scale)” value [10, 20] was 75 and the “Plant response rating, Morningglory” value [10, 21] was 100. For the same compound, the “Plant response rating, Pigweed” value [11, 19] was 100, the “Pigweed plant response rating (0 to 100 scale)” value [11, 20] was 100 and the “Plant response rating, Pigweed” value [11, 21] was 100. The “Plant response rating, Ragweed” value [12, 19] was 40, the “Ragweed plant response rating (0 to 100 scale)” value [12, 20] was 45 and the “Plant response rating, Ragweed” value [12, 21] was 80. The “Plant response rating, Soybean” value [13, 19] was 65, the “Soybean plant response rating (0 to 100 scale)” value [13, 20] was 80 and the “Plant response rating, Soybean” value [13, 21] was 95. For the same compound, the “Velvetleaf plant response rating (0 to 100 scale)” value [14, 20] was 70, the “Plant response rating, Velvetleaf” value [14, 21] was 80 and the “Plant response rating, Wheat” value [15, 19] was 0. The “Wheat plant response rating (0 to 100 scale)” value [15, 20] was 0, the “Plant response rating, Wheat” value [15, 21] was 5 and the “Plant response rating, Canarygrass” value [16, 19] was 0. The “Canarygrass plant response rating (0 to 100 scale)” value [16, 20] was 5, the “Plant response rating, Canarygrass” value [16, 22] was 30 and the “Plant response rating, Canarygrass” value [16, 21] was 35. The “Plant response rating, Chickweed” value [17, 19] was 95, the “Chickweed plant response rating (0 to 100 scale)” value [17, 20] was 100 and the “Plant response rating, Chickweed” value [17, 22] was 100. For the same compound, the “Plant response rating, Chickweed” value [17, 21] was 100, the “Plant response rating, Barley” value [18, 19] was 0 and the “Barley plant response rating (0 to 100 scale)” value [18, 20] was 0. For the same compound, the “Plant response rating, Barley” value [18, 22] was 5 and the “Plant response rating, Barley” value [18, 21] was 5.
